From patent publication US11098027B2, “Therapeutic heterocyclic compounds” (Gilead Sciences, Inc., priority 2018, dated 2021)

Target: T1, IDO1 (Homo sapiens, UniProt P14902)
T1 construct: HeLa cells were treated with a test compound in the presence of IFNγ, which induces IDO1 expression; host or cells: H1-HeLa cells, IDO1 induced with IFNγ
Assay: Cell-based (HeLa) assay for measurement of IDO1 inhibition (kynurenine levels in supernatant)
Details: H1-HeLa cells, IDO1 induced with IFNγ, 48 hour incubation, kynurenine read by absorbance at 480 nm; geometric mean of a minimum of four determinations
Protocol: Example B-1. Cell-Based (HeLa) Assay for Measurement of IDO1 Inhibition
To measure IDO1 inhibition in tissue culture, HeLa cells were treated with a test compound in the presence of IFNγ, which induces IDO1 expression. Following incubation, cell supernatants were assayed for kynurenine levels, an indicator of IDO1 activity.
The following day, the test compounds were added in DMSO (0.5% final) at various concentrations, and IDO1 was inducibly expressed by the addition of 50 uL/well of 50 ng/mL of INFγ (Peprotech #300-02) in cell plating media. As a positive control, 50 uL of the cell plating media without IFNγ was added to several wells. Following a 48 hour incubation, the plates were spun down at 1,200 RPM for 5 min at 10° C. 65 μL/well of the supernatant was then transferred to new 384-well plates (Thermo #262160) that contained 10 uL/well of 30% TCA (Sigma # TO699), and the plates were sealed and incubated at 60° C. for 30 min. The plates were then centrifuged for 15 min at 2,000 RPM at 10° C. 40 μL/well of the supernatant was transferred to new 384-well plates (Thermo #262160) and was reacted with 40 μL/well of 2% (w/v) p-dimethlyaminobenzaldehyde (Sigma #156417) in glacial acetic acid (Sigma #A6283). The reaction was incubated at room temperature for 10 min and absorbance at 480 nm was read using a PerkinElmer Envision plate reader.
Data in Table 1 were normalized based on positive (−IFNγ) and negative (+IFNγ) controls and EC50 values were calculated from the fit of the dose—response curves to a four-parameter equation. All EC50 values represent geometric mean values of a minimum of four determinations. These assays generally produced results within 2-fold of the reported mean

T1 sequence (P14902 whole entry): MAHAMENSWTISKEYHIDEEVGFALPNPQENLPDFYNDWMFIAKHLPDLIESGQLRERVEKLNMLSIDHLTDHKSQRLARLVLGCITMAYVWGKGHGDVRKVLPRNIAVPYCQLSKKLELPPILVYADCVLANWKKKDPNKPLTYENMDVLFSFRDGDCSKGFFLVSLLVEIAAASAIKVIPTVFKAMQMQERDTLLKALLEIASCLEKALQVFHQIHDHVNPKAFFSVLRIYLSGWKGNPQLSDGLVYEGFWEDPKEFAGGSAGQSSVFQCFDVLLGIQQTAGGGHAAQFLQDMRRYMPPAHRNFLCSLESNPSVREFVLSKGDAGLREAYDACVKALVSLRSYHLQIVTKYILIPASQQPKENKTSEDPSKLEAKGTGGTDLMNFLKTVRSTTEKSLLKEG

Row | SMILES | EC50
1 | CC1(C)C(=O)N(c2ncccn2)c2cccc(-c3ccc(C(F)(F)F)c(C(=O)Nc4ccc(F)c(Br)c4)c3)c21 [Example 31, N-(3-bromo-4-fluorophenyl)-5-(3,3-dimethyl-2-oxo-1-(pyrimidin-2-yl)indolin-4-yl)-2-(trifluoromethyl)benzamide] | 57 nM
2 | CC1(C)C(=O)N(c2cccnc2)c2nccc(-c3ccc(C(F)(F)F)c(C(=O)Nc4ccc(F)c(F)c4)c3)c21 [Example 32, N-(3,4-difluorophenyl)-5-(3,3-dimethyl-2-oxo-1-(pyridin-3-yl)-2,3-dihydro-1H-pyrrolo[2,3-b]pyridin-4-yl)-2-(trifluoromethyl)benzamide] | 57 nM
3 | O=C(Nc1ccc(F)cc1)c1cc(-c2cccc3c2C2(CCC2)C(=O)N3c2ncccn2)ccc1C(F)(F)F [Example 33, N-(4-fluorophenyl)-5-(2′-oxo-1′-(pyrimidin-2-yl)spiro[cyclobutane-1,3′-indolin]-4′-yl)-2-(trifluoromethyl)benzamide] | 92 nM
4 | Cc1ccc(-c2cccc3c2oc(=O)n3-c2cccnc2)cc1C(=O)Nc1ccc(F)cc1 [Example 34, N-(4-fluorophenyl)-2-methyl-5-(2-oxo-3-(pyridin-3-yl)-2,3-dihydrobenzo[d]oxazol-7-yl)benzamide] | 19 nM
5 | CC1(C)C(=O)N(c2ncccn2)c2cccc(-c3cnc(C(F)(F)F)c(C(=O)Nc4ccc(F)cc4)c3)c21 [Example 35, 5-(3,3-dimethyl-2-oxo-1-(pyrimidin-2-yl)indolin-4-yl)-N-(4-fluorophenyl)-2-(trifluoromethyl)nicotinamide] | 17 nM
6 | CC1(C)C(=O)N(c2cccnc2)c2cccc(-c3cnc(C(F)(F)F)c(C(=O)Nc4ccc(F)cc4)c3)c21 [Example 36, 5-(3,3-dimethyl-2-oxo-1-(pyridin-3-yl)indolin-4-yl)-N-(4-fluorophenyl)-2-(trifluoromethyl)nicotinamide] | 26 nM
7 | CC1(C)C(=O)N(c2ncccn2)c2cccc(-c3ccc(C(F)(F)F)c(C(=O)Nc4ccccc4)c3)c21 [Example 37, 5-(3,3-dimethyl-2-oxo-1-(pyrimidin-2-yl)indolin-4-yl)-N-phenyl-2-(trifluoromethyl)benzamide] | 28 nM
8 | CC1(C)C(=O)N(c2cccc(F)c2F)c2cccc(-c3ccc(C(F)(F)F)c(C(=O)Nc4ccc(F)cc4)c3)c21 [Example 38, 5-(1-(2,3-difluorophenyl)-3,3-dimethyl-2-oxoindolin-4-yl)-N-(4-fluorophenyl)-2-(trifluoromethyl)benzamide] | 55 nM
9 | Cc1ccc(-c2cccc3c2oc(=O)n3-c2cccc(F)c2F)cc1C(=O)Nc1ccc(F)cc1 [Example 39, 5-(3-(2,3-difluorophenyl)-2-oxo-2,3-dihydrobenzo[d]oxazol-7-yl)-N-(4-fluorophenyl)-2-methylbenzamide] | 47 nM
10 | CC1(C)C(=O)N(c2ncc[nH]2)c2cccc(-c3ccc(C(F)(F)F)c(C(=O)Nc4ccc(F)cc4)c3)c21 [Example 40, 5-(1-(1H-imidazol-2-yl)-3,3-dimethyl-2-oxoindolin-4-yl)-N-(4-fluorophenyl)-2-(trifluoromethyl)benzamide] | 31 nM
11 | Cc1ccc(-c2cccc3c2C(C)(C)C(=O)N3c2ncccn2)nc1C(=O)Nc1ccc(F)cc1 [Example 41, 6-(3,3-dimethyl-2-oxo-1-(pyrimidin-2-yl)indolin-4-yl)-N-(4-fluorophenyl)-3-methylpicolinamide] | 424 nM
12 | CC1(C)C(=O)N(c2cccnc2)c2nccc(-c3ccc(C(F)(F)F)c(C(=O)Nc4ccccc4)c3)c21 [Example 42, 5-(3,3-dimethyl-2-oxo-1-(pyridin-3-yl)-2,3-dihydro-1H-pyrrolo[2,3-b]pyridin-4-yl)-N-phenyl-2-(trifluoromethyl)benzamide] | 37 nM
13 | CC1(C)C(=O)N(c2ccccn2)c2nccc(-c3cnc(C(F)(F)F)c(C(=O)Nc4ccc(F)c(F)c4)c3)c21 [Example 43, N-(3,4-difluorophenyl)-5-(3,3-dimethyl-2-oxo-1-(pyridin-2-yl)-2,3-dihydro-1H-pyrrolo[2,3-b]pyridin-4-yl)-2-(trifluoromethyl)nicotinamide] | 103 nM
14 | CC1(C)C(=O)N(c2ncccn2)c2cccc(-c3ccc(C(F)(F)F)c(C(=O)Nc4ccc(F)cc4)n3)c21 [Example 44] | 113 nM
15 | Cc1ccc(-c2cccc3c2C(C)(C)C(=O)N3c2ncccn2)c(F)c1C(=O)Nc1ccc(F)cc1 [Example 45, 3-(3,3-dimethyl-2-oxo-1-(pyrimidin-2-yl)indolin-4-yl)-2-fluoro-N-(4-fluorophenyl)-6-methylbenzamide] | 32 nM
16 | CC1(C)C(=O)N(c2ncccn2)c2cccc(-c3ccc(C(F)(F)F)c(C(=O)Nc4ccnnc4)c3)c21 [Example 46, 5-(3,3-dimethyl-2-oxo-1-(pyrimidin-2-yl)indolin-4-yl)-N-(pyridazin-4-yl)-2-(trifluoromethyl)benzamide] | 283 nM
17 | CC1(C)C(=O)N(c2ncccn2)c2cccc(-c3ccc(C(F)(F)F)c(C(=O)Nc4cncnc4)c3)c21 [Example 47, 5-(3,3-dimethyl-2-oxo-1-(pyrimidin-2-yl)indolin-4-yl)-N-(pyrimidin-5-yl)-2-(trifluoromethyl)benzamide] | 810 nM
18 | CC1(C)C(=O)N(c2ncccn2)c2cccc(-c3ccc(C(F)(F)F)c(C(=O)Nc4ccncn4)c3)c21 [Example 48, 5-(3,3-dimethyl-2-oxo-1-(pyrimidin-2-yl)indolin-4-yl)-N-(pyrimidin-4-yl)-2-(trifluoromethyl)benzamide] | 73 nM
19 | CC1(C)C(=O)N(c2ccncn2)c2cccc(-c3cnc(C(F)(F)F)c(C(=O)Nc4ccc(F)cc4)c3)c21 [Example 49, 5-(3,3-dimethyl-2-oxo-1-(pyrimidin-4-yl)indolin-4-yl)-N-(4-fluorophenyl)-2-(trifluoromethyl)nicotinamide] | 33 nM
20 | CC1(C)C(=O)N(c2ncccn2)c2nccc(-c3ccc(C(F)(F)F)c(C(=O)Nc4ccc(F)c(F)c4)c3)c21 [Example 50, N-(3,4-difluorophenyl)-5-(3,3-dimethyl-2-oxo-1-(pyrimidin-2-yl)-2,3-dihydro-1H-pyrrolo[2,3-b]pyridin-4-yl)-2-(trifluoromethyl)benzamide] | 50 nM
21 | CC1(C)C(=O)N(c2ccncn2)c2cccc(-c3cnc(C(F)(F)F)c(C(=O)Nc4ccc(F)c(F)c4)c3)c21 [Example 51, N-(3,4-difluorophenyl)-5-(3,3-dimethyl-2-oxo-1-(pyrimidin-4-yl)indolin-4-yl)-2-(trifluoromethyl)nicotinamide] | 41 nM
22 | CC1(C)Oc2c(-c3ccc(C(F)(F)F)c(C(=O)Nc4ccc(F)cc4)c3)cccc2N(c2ccccn2)C1=O [Example 52, 5-(2,2-dimethyl-3-oxo-4-(pyridin-2-yl)-3,4-dihydro-2H-benzo[b][1,4]oxazin-8-yl)-N-(4-fluorophenyl)-2-(trifluoromethyl)benzamide] | 491 nM
23 | Cc1ccc(-c2cccc3c2C(C)(C)C(=O)N3Cc2ncccn2)cc1C(=O)Nc1ccc(F)cc1 [Example 53, 5-(3,3-dimethyl-2-oxo-1-(pyrimidin-2-ylmethyl)indolin-4-yl)-N-(4-fluorophenyl)-2-methylbenzamide] | 1020 nM
24 | CC1(C)Oc2c(-c3ccc(C(F)(F)F)c(C(=O)Nc4ccc(F)cc4)c3)cccc2N(c2ncccn2)C1=O [Example 54, 5-(2,2-dimethyl-3-oxo-4-(pyrimidin-2-yl)-3,4-dihydro-2H-benzo[b][1,4]oxazin-8-yl)-N-(4-fluorophenyl)-2-(trifluoromethyl)benzamide] | 1340 nM
25 | CC1(C)Oc2c(-c3ccc(C(F)(F)F)c(C(=O)Nc4ccc(F)cc4)c3)cccc2N(c2cnccn2)C1=O [Example 55, 5-(2,2-dimethyl-3-oxo-4-(pyrazin-2-yl)-3,4-dihydro-2H-benzo[b][1,4]-oxazin-8-yl)-N-(4-fluorophenyl)-2-(trifluoromethyl)benzamide] | 101 nM
26 | CC1(C)C(=O)N(c2cccnc2)c2cccc(-c3ccc(C(F)(F)F)c(-c4nc5cc(F)ccc5[nH]4)c3)c21 [Example 56, 4-(3-(5-fluoro-1H-benzo[d]imidazol-2-yl)-4-(trifluoromethyl)phenyl)-3,3-dimethyl-1-(pyridin-3-yl)indolin-2-one] | 3030 nM
27 | CC1(C)C(=O)N(c2cccnc2)c2cccc(-c3cnc(C(F)(F)F)c(C(=O)Nc4ccccc4)c3)c21 [Example 58, 5-(3,3-dimethyl-2-oxo-1-(pyridin-3-yl)indolin-4-yl)-N-phenyl-2-(trifluoromethyl)nicotinamide] | 53 nM
